Laboratory results taken from ChEMBL document CHEMBL4842341, “Discovery of IACS-9779 and IACS-70465 as Potent Inhibitors Targeting Indoleamine 2,3-Dioxygenase 1 (IDO1) Apoenzyme” (J Med Chem, 2021).
Each block holds one compound with its values, some of them ahead of it.

What was measured:
in vitro [1] = settings: rat, liver microsomes
[2] = Apparent permeability across basolateral side to apical side in MDCK cells; format: ADME, cell-based, Canis lupus familiaris; settings: dog
[3] = Apparent permeability across apical side to basolateral side in MDCK-MDR1 cells; format: ADME, cell-based, Canis lupus familiaris; settings: dog
[4] = Apparent permeability across apical side to basolateral side in wild type MDCK cells; format: ADME, cell-based, Canis lupus familiaris; settings: dog
[5] = Apparent permeability across basolateral side to apical side in MDCK-MDR1 cells; format: ADME, cell-based, Canis lupus familiaris; settings: dog
[6] = Half life in mouse plasma; format: ADME, cell-free
in vitro [7] = settings: human, liver microsomes
in vivo [8] = settings: NSG, mouse, tumor, po, 125 mg/kg
in vivo [9] = settings: NSG, mouse, plasma, po, 125 mg/kg
in vivo [10] = settings: NSG, mouse, tumor, po, 125 mg/kg; remark: listed apart in the source
in vivo [11] = settings: NSG, mouse, plasma, po, 125 mg/kg; remark: listed apart in the source
in vivo [12] = settings: CD-1, mouse, iv, 0.3 mg/kg
in vivo [13] = settings: NSG, mouse, plasma, po, 125 mg/kg; remark: listed apart in the source
in vivo [14] = settings: CD-1, mouse, po, 10 mg/kg
in vivo [15] = settings: NSG, mouse, tumor, po, 125 mg/kg; remark: listed apart in the source
[16] = Drug concentration in plasma of NSG mouse xenografted with human SKOV3 cells at 200 mg/kg, po BID measured after 12 hrs by LC-MS analysis; format: ADME, organism-based, SK-OV-3
[17] = Drug concentration in tumor of NSG mouse xenografted with human SKOV3 cells at 200 mg/kg, po BID measured after 12 hrs by LC-MS analysis; format: ADME, organism-based, Neoplasm, SK-OV-3; settings: read-out: Drug uptake
in vivo [18] = settings: CD-1, mouse, iv, 0.3 mg/kg; remark: listed apart in the source
in vivo [19] = settings: CD-1, mouse, po, 10 mg/kg; remark: listed apart in the source
in vivo [20] = settings: CD-1, mouse, iv, 0.3 mg/kg; remark: listed apart in the source
in vivo [21] = settings: CD-1, mouse, iv, 0.3 mg/kg; remark: listed apart in the source
in vivo [22] = settings: CD1, mouse, po, 10 mg/kg
in vivo [23] = settings: CD1, mouse, po, 10 mg/kg; remark: listed apart in the source
in vivo [24] = settings: CD1, mouse, iv, 0.3 mg/kg
in vivo [25] = settings: CD1, mouse, iv, 0.3 mg/kg; remark: listed apart in the source
in vivo [26] = settings: CD1, mouse, iv, 0.3 mg/kg; remark: listed apart in the source
in vivo [27] = settings: CD1, mouse, iv, 0.3 mg/kg; remark: listed apart in the source

CLint scaled at 0.75 h, 1 µM (in vitro [1]): 137 mL/min/kg
CLint scaled at 0.75 h, 1 µM (in vitro [7]): 171 mL/min/kg
SMILES: O=C(Nc1ccc(Cl)cc1)C1CC12CCC(Oc1ccnc3ccccc13)CC2 (stereo not drawn)

CLint scaled at 0.75 h, 1 µM (in vitro [1]): 170 mL/min/kg
CLint scaled at 0.75 h, 1 µM (in vitro [7]): 115 mL/min/kg
SMILES: O=C(Nc1ccc(Cl)cc1)N1CCC(CCc2ccnc3ccccc23)CC1

clearance at 24 h (in vivo [12]): 53.3 mL/min/kg
CLint scaled at 0.75 h, 1 µM (in vitro [1]): 32 mL/min/kg
concentration at 120 h (in vivo [13]): 0.1 µM
bioavailability at 24 h (in vivo [14]): 50%
concentration at 120 h (in vivo [15]): 3.2 µM
concentration at 12 h [16]: 0.69 µM
concentration at 12 h [17]: 5 µM
AUC(0-inf) at 24 h (in vivo [18]): 0.21 µM·h
Cmax at 24 h (in vivo [19]): 2 µM
Vd at 24 h (in vivo [20]): 7.5 L/kg
half-life at 24 h (in vivo [21]): 1.6 h
SMILES: NS(=O)(=O)NCCNc1nonc1C(=NO)Nc1ccc(F)c(Br)c1 [EPACADOSTAT]

concentration at 120 h (in vivo [10]): 2.3 µM
concentration at 120 h (in vivo [11]): 0.6 µM
SMILES: CC[C@@H](NC(=O)c1ccc(Cl)cc1)[C@H]1[C@@H]2C[C@@H](n3cnc4ccc(F)cc43)C[C@@H]21 (stereo in doubt; 56)

CLint scaled at 0.75 h, 1 µM (in vitro [7]): 227 mL/min/kg
SMILES: O=C(NC[C@H]1[C@H]2C[C@H](Oc3ccnc4ccc(F)cc34)C[C@@H]12)c1ccc(Cl)cc1

CLint scaled at 0.75 h, 1 µM (in vitro [1]): 884 mL/min/kg
CLint scaled at 0.75 h, 1 µM (in vitro [7]): 681 mL/min/kg
SMILES: O=C(C[C@H]1CC[C@@H](c2ccccc2)CC1)Nc1ccc(Cl)cc1

CLint scaled at 0.75 h, 1 µM (in vitro [7]): 5.5 mL/min/kg
SMILES: CCC(NC(=O)c1ccc(Cl)cc1)[C@H]1[C@@H]2C[C@@H](n3cnc4cc(F)cc(F)c43)C[C@@H]21 (stereo partly drawn)

CLint scaled at 0.75 h, 1 µM (in vitro [7]): 4.5 mL/min/kg
SMILES: CCC(NC(=O)c1ccc(Cl)cc1)[C@H]1[C@@H]2C[C@@H](n3cnc4ncc(C#N)cc43)C[C@@H]21 (stereo partly drawn)

CLint scaled at 0.75 h, 1 µM (in vitro [7]): 39 mL/min/kg
SMILES: O=C(NC[C@H]1[C@H]2C[C@@H](Oc3ccnc4ccc(F)cc34)C[C@@H]12)c1ccc(Cl)cc1

concentration at 120 h (in vivo [8]): 5.1 µM
concentration at 120 h (in vivo [9]): 2.8 µM
SMILES: C[C@@H](NC(=O)c1ccc(Cl)cc1)[C@H]1[C@@H]2C[C@@H](n3cnc4cc(F)c(F)cc43)C[C@@H]21

Further lines, the compound ahead of its results:

SMILES: CCC(NC(=O)c1ccc(Cl)cc1)[C@@H]1[C@@H]2C[C@@H](Oc3ccnc4ccccc34)C[C@@H]21 (stereo partly drawn)
CLint scaled at 0.75 h, 1 µM (in vitro [1]): 14 mL/min/kg
Papp B→A [2]: 1.73 ×10⁻⁶ cm/s
Papp A→B [3]: 1.86 ×10⁻⁶ cm/s
Papp A→B [4]: 3.63 ×10⁻⁶ cm/s
Papp B→A [5]: 1.4 ×10⁻⁶ cm/s
half-life [6]: 12.8 h
CLint scaled at 0.75 h, 1 µM (in vitro [7]): 23 mL/min/kg

SMILES: CC[C@@H](NC(=O)c1ccc(Cl)cc1)[C@H]1[C@@H]2C[C@@H](n3cnc4ccc(C#N)cc43)C[C@@H]21
concentration at 120 h (in vivo [8]): 12 µM
concentration at 120 h (in vivo [9]): 10.1 µM

SMILES: CC[C@@H](NC(=O)c1ccc(C#N)cc1)[C@H]1[C@@H]2C[C@@H](n3cnc4cc(F)c(F)cc43)C[C@@H]21
concentration at 120 h (in vivo [10]): 52 µM
concentration at 120 h (in vivo [11]): 49.3 µM

SMILES: CC(NC(=O)c1ccc(C#N)cc1)[C@H]1[C@@H]2C[C@@H](Oc3ncnc4cc(F)ccc34)C[C@@H]21 (stereo partly drawn)
bioavailability (in vivo [22]): 62%
Cmax (in vivo [23]): 44 µM
half-life (in vivo [24]): 33 h
AUC(0-inf) (in vivo [25]): 106 µM·h
Vd (in vivo [26]): 0.31 L/kg
CLint scaled at 0.75 h, 1 µM (in vitro [7]): 17 mL/min/kg
clearance (in vivo [27]): 0.117 mL/min/kg

SMILES: CCC(NC(=O)c1ccc(Cl)cc1)[C@H]1[C@@H]2C[C@@H](n3cc(C4CC4)nn3)C[C@@H]21 (stereo partly drawn)
bioavailability (in vivo [22]): 22%
Cmax (in vivo [23]): 1.5 µM
half-life (in vivo [24]): 2.7 h
AUC(0-inf) (in vivo [25]): 2.8 µM·h
Vd (in vivo [26]): 1.04 L/kg
CLint scaled at 0.75 h, 1 µM (in vitro [7]): 6.5 mL/min/kg
clearance (in vivo [27]): 4.67 mL/min/kg

SMILES: CC[C@@H](NC(=O)c1ccc(Cl)c(F)c1)[C@H]1[C@@H]2C[C@@H](n3cnc4cc(F)c(F)cc43)C[C@@H]21
concentration at 120 h (in vivo [8]): 11 µM
concentration at 120 h (in vivo [9]): 4.1 µM

SMILES: CCC(NC(=O)c1ccc(Cl)cc1)[C@H]1[C@@H]2C[C@@H](n3cnc4ccc(F)c(F)c43)C[C@@H]21 (stereo partly drawn)
CLint scaled at 0.75 h, 1 µM (in vitro [7]): 18 mL/min/kg

SMILES: CCC(NC(=O)c1ccc(Cl)cc1)[C@@H]1[C@@H]2C[C@H](Oc3ccnc4ccncc34)C[C@@H]21 (stereo partly drawn)
CLint scaled at 0.75 h, 1 µM (in vitro [7]): 54 mL/min/kg

SMILES: O[C@H](C[C@H]1c2c(F)cccc2-c2cncn21)[C@H]1CC[C@H](O)CC1 [NAVOXIMOD]
CLint scaled at 0.75 h, 1 µM (in vitro [1]): 39 mL/min/kg
CLint scaled at 0.75 h, 1 µM (in vitro [7]): 11 mL/min/kg

SMILES: CC[C@@H](NC(=O)c1ccc(Cl)cc1)[C@H]1[C@@H]2C[C@@H](n3cnc4ccc(Cl)cc43)C[C@@H]21
concentration at 120 h (in vivo [8]): 0.6 µM
concentration at 120 h (in vivo [9]): 0.5 µM
